Laboratory results reported in patent US6602487B1, “Methods and tests for producing and for inhibiting coronary artery vasospasms” (Dimera Incorporated, priority 1997, dated 2003).
Several values for one entry are separate records, joined by “and”; a condition that tells them apart may be missing. Equal entries are not always repeated. Entries after “also recorded” stand apart in the source; their conditions may differ. Where two headings read alike, the source gives them in different places.

Key:
coronary arteries [1] = conditions: for EC50: read-out: estimated ET1 EC50, responsive ovx monkeys; for coronary vasospasm on IC injection (no mechanical injury): serotonin 6.7 or 200 μmol/liter alone, U46619 6.7 to 2,000 nmol/liter alone, AII up to 200 nmol/liter, combination 6.7 μmol/liter serotonin and 67 nmol/liter U46619, triple combination with ET1
coronary arteries [2] = assay: Mechanical injury coronary vasospasm protocol (Protocol 2); assay type: in vivo, rhesus monkeys (Macaca mulatta); conditions: for Spasms/N: number of animals with vasospasm / number of animals; for ED50 (-log mol/liter): syringe concentration of the named vasoconstrictor causing 50% reduction of diameter from control, combined stimuli with 100 μmol/liter serotonin
From the text: A separate mechanical injury, Protocol 2, was used in three additional monkeys (one male, two ovx). The injury step of Protocol 2, was deliberate mechanical stretching of the LAD or left main coronary artery with a 5F catheter.
In Protocol 2, steps 1-5 were the same as in Protocol 1. The remaining steps were as follows:
7. IC injection of angiotensin II (sequential doses to 10 μmol/liter);
8. Injury by stretching the coronary artery with a 5F catheter;
9. IC injection of serotonin (sequential doses to 1 mmol/liter);
10. IC injection 15 minutes later with 1 or 10 μmol/liter nitrendipine or Ro 40-5967 (mibefradil);
11. IC injection of […] (sequential doses to 10 μmol/liter); and
12. IC injection 15 minutes later with 1 or 10 μmol/liter nitrendipine or Ro 40-5967.
Putative coronary vasospasm stimuli were judged primarily by actions on large coronary artery diameters, analyzed as diameter of the most proximal focus of vasospasm at end-diastole from video-taped images recorded at 30 frames/s. We used the image analysis program Image Pro to measure the diameters from single frames acquired with an Imagraph frame grabber in a Pentium computer. We used the 3F catheter tip radio-opaque marker ring (1.0 mm) for calibration and determined minimal and maximal diameters just distal to the constriction. All responses to interventions were also X-ray imaged immediately (15 to 30 s after injection) and at exactly 3 minutes (and 15 minutes if there was vasospasm) after injection.

coronary arteries [3] = assay: Drug-induced (S+U) coronary vasospasm in ovariectomized monkeys with E2 plus P or MPA implants; assay type: in vivo, rhesus monkeys (Macaca mulatta)
Experimental: Twelve rhesus monkeys (Macaca mulatta), aged 8 to 16 years and with weights of 5-7 kg, were ovariectomized at least 3 months prior to beginning of the study and selected randomly for one of two treatments. After documenting the lack of cardiovascular disease or previous exposure to atherogenic diet and after a normal physical examination (including blood chemistry), monkeys received subdermal sylastic implants containing 200 mg of E2. Two weeks later, sylastic implants containing either 400 mg of P or 400 mg of MPA were additionally implanted. All steroids were purchased from Steraloids (Wilton, N.H.). Both estrogen and progestin implants, providing sustained release steroids, remained in place through the catheterization study 6 weeks after beginning the study. Venous blood sample (5 ml) were collected just prior to beginning the study at weekly intervals for measurements of serum levels of E2, P, and MPA. Target levels of 80-160 pg/ml for E2, 4000-8000 pg/ml for P, and 400-800 pg/ml for MPA were based on levels that are effective by reproductive system indices in women and monkeys. Levels were measured in blood serum at catheterization by specific radio-immunoassays.
Angiography was carried out under isoflurane (0.75-1.25%) general anesthesia with 70% O2 and 30% N2O, and body temperature supported with a heating pad. After ketamine sedation (10 mg/kg) and endotracheal tube placement, both femoral arteries were cannulated for simultaneous measurement of systemic blood pressure and coronary catheterization. Intravenous anticoagulation with 1000 units of heparin and fluid replacement with 75-150 ml of lactated Ringer's solution, and if needed 10-50 ml of dextran, to reach a minimum control diastolic blood pressure of 60 mm Hg.
Coronary arteries (left anterior descending or left circumflex) of the monkeys were catheterized and agents injected as described above in Example 1.
Statistical analysis was carried out by Student's t-test (non-paired) or Chi-square, with the p<0.05 level accepted as significant.
All monkeys were treated with estradiol 17β via sylastic implants for the entire treatment period. P or MPA was added during the last 2 weeks as a second sylastic implant, to simulate the luteal phase (P) or hormone replacement therapy (MPA). All steroid implants were left in place, including during angiography. Steroid measurements were made by RIA on serum samples taken just before angiography. Indicates significant differences between P and MPA at p 0.05 (N=6 for each group).

[4] = test system: coronary artery vascular muscle cells (VMC); assay: Subcellular Ca2+ and PKC localization and contraction of coronary VMC stimulated with serotonin plus U46619; assay type: cell-based, rhesus monkeys
From the text: Single VMCs from the left anterior descending, circumflex, and right coronary arteries of adult rhesus monkeys were isolated and studied both as freshly dispersed and as primary cultures. The short-term primary cultured cells (never passaged) maintain the characteristics of the source tissue for 2 3 weeks, including contraction, relaxation, receptors, and membrane electrical properties. VMCs were dissociated with collagenase and protease enzymes in a potassium glutamate solution (KG) that prevent loading with Na^+, Ca^2+, or Cl^− and results in a high proportion of viable, contracting cells (Self, D. A., et al., J. Vasc. Res. 31:359-366 (1994); Rusch., N. J., et al., Physiology and Pathophysiology of the Heart, 999-1010 (1995)). The cells prepared for culture were seeded at low density in cardiovascular culture solution for mammals, fifth generation (CV5M) on glass coverslips to facilitate selection of individual cells. VMC were used for experiments 7-14 days after attaching to coverslips.
Freshly dispersed or primary cultured VMCs on glass coverslips were placed in a chamber of laminar flow design and observed with a Zeiss Plan Neofluar 25×/0.80 water immersion objective. Ionic solution for mammals version 2 (ISM2) was continuously pumped through the chamber (at 1 ml/minute) to provide continuous equilibration and washout of drugs. After a 15 minutes equilibration period, VMC were loaded for 15 minutes at room temperature with 3 μM fluo 3 (Molecular Probes, Inc.) for sensing Ca^2− and for 10 minutes with […] hypericin (LC Laboratories) for reporting PKC. Individual VMC were stimulated by adding 20 μl of 10 μM serotonin plus 100 nM U46619 over the individual cell. After 15 seconds under no-flow conditions, continuous flow of ISM2 was reinstated and a chamber volume of approximately 300 μl was maintained. Fluorescent images were taken at 1, 2, 5, 10, 15, 20 and 30 minutes after stimulation for Ca^2+ and at 3, 4, 9, 16, 21 and 31 minutes for PKC to evaluate subcellular distribution of these signals, and to determine VMC contraction.
ISM2 contains (in mM): 100 NaCl, 4 NaHCO3, 0.5 NaH2PO4, 4.7 KCl, 1.8 CaCl2, 0.41 […], 50 HEPES (pH 7.37), and 5.5 dextrose, KG solution consists of (in mM); 140 K-glutamate, 16 NaHCO3, 0.5 NaH2PO4, 30 HEPES, and 16.5 dextrose at pH 7.3. CVSM consists of. 4.0 mM L-glutamine, 10 μg/ml ciprofloxacin (Miles Pentex/Bayer Corporation), 50 mM HEPES (pH 7.3), and 16 mM NaHCO3 dissolved in 85% MEM-Earle's'salts and 15% horse serum. Phenol red, known to have estrogenic activity, was omitted from all solutions.
As discussed above, the monkeys were implanted with subdermal sylastic tubing containing estrogen (E) progesterone (P) or MPA. The first step in each of the three groups was to implant sylastic tubing containing E. Two weeks later, either P or MPA were additionally implanted and maintained for another 4 weeks (6 weeks total). In the withdrawal (W) group, the E tube was withdrawn, and no tubes were implanted for the last 4 weeks.

[5] = angiographic example, one MPA monkey
[6] = minimum, 5-20 minutes after IC S + U

For `CC(=O)OCC[N+](C)(C)C` [ACh, acetylcholine], the time to vasodilation (coronary arteries [1]; 67 nmol/liter ACh IC, all monkeys) was at most 15 s.

With `CC[C@H](C)[C@H](NC(=O)[C@H](CC(=O)O)NC(=O)[C@H](CC(C)C)NC(=O)[C@H](Cc1c[nH]cn1)NC(=O)[C@@H]1CSSC[C@H](N)C(=O)N[C@@H](CO)C(=O)N[C@H]2CSSC[C@H](NC(=O)[C@H](CCC(=O)O)NC(=O)[C@H](CCCCN)NC(=O)[C@H](CC(=O)O)NC(=O)[C@H](CCSC)NC(=O)[C@H](CC(C)C)NC(=O)[C@H](CO)NC(=O)[C@H](CO)NC2=O)C(=O)N[C@@H](C(C)C)C(=O)N[C@@H](Cc2ccc(O)cc2)C(=O)N[C@@H](Cc2ccccc2)C(=O)N1)C(=O)N[C@H](C(=O)N[C@@H](Cc1c[nH]c2ccccc12)C(=O)O)[C@@H](C)CC` [Endothelin 1] the Spasms/N (coronary arteries [2]; Protocol 2) was 0/3, the “ED50 (-log mol/liter)” value (coronary arteries [2]; Protocol 2) was 8.5 -log mol/liter and the EC50 (coronary arteries [1]; with 6.7 μmol/liter serotonin) was 0.067 nM. For the same compound, the EC50 (coronary arteries [1]; without serotonin) was 0.2 nM.

For `CC(=O)O[C@]1(C(C)=O)CC[C@H]2[C@@H]3C[C@H](C)C4=CC(=O)CC[C@]4(C)[C@H]3CC[C@@]21C` [MPA, medroxyprogesterone acetate], the “diameter in dilator response to low dose ACh” value (coronary arteries [3]; 0.18 μg ACh IC) was 1.21±0.19 mm, the “number of S+U challenges responded to with vasospasm (mean)” value (coronary arteries [3]; E2+MPA treated monkeys) was 2.7±0.7 and the “number of S+U challenges responded to with vasospasm (range)” value (coronary arteries [3]; E2+MPA treated monkeys) was 1-5. The “Vasospasms (incidence)” value (coronary arteries [3]; S+U IC challenges, E2 implant plus P or MPA implant, N=6 per group) was 6 of 6 and 6/6*, the “reduction of minimum (φ) from controls after S+U” value (coronary arteries [3]; S+U stimulation) was 87% and the “constriction after IC S+U” value (coronary arteries [3]; [5]) was 92%. The “time constriction was sustained” value (coronary arteries [3]; [5]) was 15 min, the blood pressure nadir (coronary arteries [3]; angiographic example, one MPA monkey after S+U) was 38/20 and the “Control DBP in mm Hg” value (coronary arteries [3]; before S + U) was 61 ± 5 mm Hg. For the same compound, the “Control Heart rate in bpm” value (coronary arteries [3]; before S + U) was 134 ± 26 bpm, the “S + U (φ) minimum” value (coronary arteries [3]; minimum diameter 3 to 5 minutes after IC S + U) was 0.15±0.04 mm and the “S + U stim DBP in min Hg” value (coronary arteries [3]; [6]) was 26 ± 8 min Hg. The “S + U stim SBP in mm Hg” value (coronary arteries [3]; [6]) was 45 ± 11 mm Hg, the “S + U stim heart rate in bpm” value (coronary arteries [3]; [6]) was 69 ± 24 bpm and the “Control (φ) in mm” value (coronary arteries [3]; proximal LAD or left circumflex diameter under control conditions, E2+P or E2+MPA group) was 1.15±0.10 mm. For the same compound, the “whole cell Ca2+ (fluo 3) fluorescence after stimulation” value ([4]; VMC from treated monkeys, 10 μM serotonin plus 100 nM U46619, FIG. 3) was “significantly increased over control averaged over the whole cell at 1 minute and every subsequent time point”, the “peripheral-to-central Ca2+ ratio after stimulation” value ([4]; VMC from treated monkeys, 10 μM serotonin plus 100 nM U46619, FIG. 4) was “significantly decreased peripheral-to-central Ca^2+ ratio at 10 minutes and all subsequent times” and the “PKC signal after stimulation” value ([4]; VMC from treated monkeys, 10 μM serotonin plus 100 nM U46619, FIG. 5) was “significantly above the 0-min control at 3 minutes and all subsequent time points”. The “peripheral-to-central PKC ratio after stimulation” value ([4]; VMC from treated monkeys, 10 μM serotonin plus 100 nM U46619, FIG. 6) was “decreased significantly”, the “VMC contractions (cell width) after stimulation” value ([4]; VMC from treated monkeys, 10 μM serotonin plus 100 nM U46619, FIG. 7) was “significantly different from 0-min controls at 3 minutes and all subsequent times” and the “duration of activation by serotonin and U46619” value ([4]; based on comparisons of contractions, protocol limit 30 minutes) was over 30 min.

In the case of `CCCCC[C@H](O)/C=C/[C@@H]1[C@@H](C/C=C\CCCC(=O)O)[C@H]2CO[C@@H]1C2` [U46619], the “coronary vasospasm with mechanical injury (5F catheter stretch)” value (coronary arteries [2]; serotonin 67 μmol/liter IC, U46619 67 nmol/liter or 1 nmol/liter, ET1 ≦10 nmol/liter, AII ≦10 μmol/liter) is reported as “caused another vasospasm; also recorded: Vasospasm was stimulated”, the “EC50 (-log mol/liter)” value (coronary arteries [1]; Protocol 1, estimated actual coronary artery blood concentration based on 15-fold dilution) is reported as 6.8 -log mol/liter and the Spasms/N (coronary arteries [1]; Protocol 1, number of animals with vasospasm / number of animals) is reported as 0/8. The “ED50 (-log mol/liter)” value (coronary arteries [1]; Protocol 1, syringe concentration of the named vasoconstrictor causing 50% reduction of diameter from control, combined stimuli with 100 μmol/liter serotonin) was 5.5 -log mol/liter, the “vasoactivity / constriction of arteries on IC injection of single agent” value (coronary arteries [1]; serotonin 67 nmol/liter to 667 μmol/liter, U46619 6.7 to 2,000 nmol/liter) was “caused constriction of arteries in all 10 monkeys” and the “coronary vasospasm on IC injection (no mechanical injury)” value (coronary arteries [1]) was “vasospasm could not be found”.

In the case of “Angiotensin II: vasoconstrictor angiotensin-II (DRVYIHPF; Angiotensin-2; UniProt P01019 25-32, looked up)”, the “EC50 (-log mol/liter)” value (coronary arteries [2]; Protocol 2, estimated actual coronary artery blood concentration based on 15-fold dilution) is reported as 6.8 -log mol/liter, the Spasms/N (coronary arteries [2]; Protocol 2) is reported as 0/3 and the “ED50 (-log mol/liter)” value (coronary arteries [2]; Protocol 2) is reported as 5.5 -log mol/liter. The systemic blood pressure (coronary arteries [1]; Angiotensin II up to 200 nmol/liter IC) was “did increase systemic blood pressure” and the “coronary vasospasm on IC injection (no mechanical injury)” value (coronary arteries [1]) was “did not cause vasospasm”.
